According to the NIST ThermoML archive (doi:10.1016/j.jct.2004.09.005):
“And” between values parts separate entries of the source, which are not always exact repeats. Equal values may be shown once.

How the values were obtained:
[1] = Crystal; for vapor or sublimation pressure: Calculated from knudsen effusion weight loss; for Normal melting temperature: DTA
[2] = Molar enthalpy of transition or fusion; settings: Crystal; DSC

O=C(O)c1cccc(Br)c1 [3-bromobenzoic acid]
[1]
Settings | vapor or sublimation pressure
327.67 K | 0.000111 kPa and 0.000113 kPa
330.66 K | 0.00016 kPa and 0.000152 kPa
332.64 K | 0.0002 kPa and 0.000196 kPa
335.16 K | 0.00025 kPa and 0.000253 kPa and 0.000261 kPa
337.71 K | 0.000354 kPa and 0.000351 kPa and 0.00035 kPa
340.14 K | 0.000464 kPa and 0.000451 kPa and 0.00045 kPa
342.65 K | 0.000596 kPa and 0.00059 kPa and 0.000584 kPa
345.15 K | 0.000783 kPa and 0.00077 kPa and 0.000767 kPa
347.6 K | 0.000995 kPa and 0.001004 kPa and 0.000982 kPa

Settings | Molar enthalpy of transition or fusion [kcal/mol] | Normal melting temperature [°C]
[1] | – | 156.93
[2] | 5.95 | –

O=C(O)c1ccc(Br)cc1 [4-bromobenzoic acid]
[1]
Settings | vapor or sublimation pressure
348.67 K | 0.000155 kPa and 0.000153 kPa and 0.000152 kPa
350.14 K | 0.000176 kPa and 0.00018 kPa and 0.000175 kPa
351.67 K | 0.000202 kPa and 0.000205 kPa
353.14 K | 0.000245 kPa and 0.00024 kPa
354.65 K | 0.000276 kPa and 0.000278 kPa
356.17 K | 0.000331 kPa and 0.000324 kPa and 0.000326 kPa
357.67 K | 0.000384 kPa and 0.000389 kPa and 0.000376 kPa
359.24 K | 0.000448 kPa and 0.000429 kPa and 0.000447 kPa
360.65 K | 0.000517 kPa and 0.000495 kPa and 0.000512 kPa
362.22 K | 0.000609 kPa and 0.000617 kPa and 0.000611 kPa
363.63 K | 0.000692 kPa and 0.000703 kPa and 0.000683 kPa
365.23 K | 0.00082 kPa and 0.000809 kPa
366.65 K | 0.000932 kPa and 0.000909 kPa

Settings | Molar enthalpy of transition or fusion [kcal/mol] | Normal melting temperature [°C]
[1] | – | 253.19
[2] | 7.38 | –

O=C(O)c1ccccc1Cl [2-chlorobenzoic acid]
[1]
Settings | vapor or sublimation pressure
320.16 K | 0.000103 kPa and 0.000102 kPa and 0.0001 kPa
322.16 K | 0.000127 kPa and 0.000126 kPa
324.14 K | 0.000166 kPa and 0.000164 kPa and 0.000163 kPa
326.14 K | 0.000205 kPa and 0.000204 kPa and 0.000206 kPa
329.15 K | 0.0003 kPa and 0.000294 kPa
332.13 K | 0.000417 kPa and 0.000414 kPa and 0.00041 kPa
335.18 K | 0.000584 kPa and 0.000582 kPa and 0.000576 kPa
337.14 K | 0.000734 kPa and 0.000721 kPa
339.15 K | 0.000934 kPa and 0.000935 kPa and 0.00092 kPa

Settings | Molar enthalpy of transition or fusion [kcal/mol] | Normal melting temperature [°C]
[1] | – | 140.80
[2] | 6.03 | –

O=C(O)c1ccccc1Br [2-bromobenzoic acid]
[1]
Settings | vapor or sublimation pressure
327.56 K | 9.4e-05 kPa and 9.1e-05 kPa
330.16 K | 0.000127 kPa and 0.000126 kPa and 0.000125 kPa
332.67 K | 0.000169 kPa and 0.000174 kPa and 0.000167 kPa
335.15 K | 0.000227 kPa and 0.000223 kPa and 0.000224 kPa
337.69 K | 0.000297 kPa and 0.000299 kPa and 0.000296 kPa
340.16 K | 0.000402 kPa and 0.000394 kPa and 0.000392 kPa
342.63 K | 0.000533 kPa and 0.000524 kPa
345.16 K | 0.000665 kPa and 0.000698 kPa and 0.000678 kPa
347.68 K | 0.000908 kPa and 0.000897 kPa and 0.000878 kPa

Settings | Molar enthalpy of transition or fusion [kcal/mol] | Normal melting temperature [°C]
[1] | – | 148.5
[2] | 5.93 | –

O=C(O)c1cccc(Cl)c1 [3-chlorobenzoic acid]
[1]
Settings | vapor or sublimation pressure
320.13 K | 0.000109 kPa and 0.000106 kPa and 0.000104 kPa
321.18 K | 0.000122 kPa and 0.00012 kPa and 0.000117 kPa
324.17 K | 0.000173 kPa and 0.000171 kPa and 0.00017 kPa
327.14 K | 0.000241 kPa and 0.000236 kPa and 0.000245 kPa
330.15 K | 0.000335 kPa and 0.000327 kPa and 0.000324 kPa
333.17 K | 0.000474 kPa and 0.000472 kPa and 0.00047 kPa
336.13 K | 0.000655 kPa and 0.000644 kPa
339.01 K | 0.000896 kPa and 0.000873 kPa and 0.000877 kPa
340.13 K | 0.001012 kPa and 0.000984 kPa and 0.00099 kPa

Settings | Molar enthalpy of transition or fusion [kcal/mol] | Normal melting temperature [°C]
[1] | – | 154.72
[2] | 5.66 | –
